Structures can show the parent of a compound that is named as a salt.
molecular target: T1, FLAG-tagged full length PHD2 (Homo sapiens, UniProt Q9GZT9); assay: PHD2 inhibition assay (time resolved fluorescence, HIF-1α peptide hydroxylation, VHL detection); format: biochemical; conditions: 0.2 μM 2-oxoglutarate, 0.5 μM HIF-1α peptide, 2 hr at room temperature; read-out: PHD2 Activity (PHD2 binding activity expressed as IC50)
T1 construct: FLAG-tagged full length PHD2; FLAG; made in house; host or cells: baculovirus-infected Sf9 cells
Experimental: To each well of a 96-well plate was added 1 μL of test compound in DMSO and 20 μl of assay buffer (50 mM Tris pH 7.4/0.01% Tween-20/0.1 mg/ml bovine serum albumin/10 μM ferrous sulfate/1 mM sodium ascorbate/20 μg/ml catalase) containing 0.15 μg/ml FLAG-tagged full length PHD2 expressed in and purified from baculovirus-infected Sf9 cells. After a 30 min preincubation at room temperature, the enzymatic reactions were initiated by the addition of 4 μL of substrates (final concentrations of 0.2 μM 2-oxoglutarate and 0.5 μM HIF-1α peptide biotinyl-[…]).

T1 sequence (Q9GZT9 whole entry): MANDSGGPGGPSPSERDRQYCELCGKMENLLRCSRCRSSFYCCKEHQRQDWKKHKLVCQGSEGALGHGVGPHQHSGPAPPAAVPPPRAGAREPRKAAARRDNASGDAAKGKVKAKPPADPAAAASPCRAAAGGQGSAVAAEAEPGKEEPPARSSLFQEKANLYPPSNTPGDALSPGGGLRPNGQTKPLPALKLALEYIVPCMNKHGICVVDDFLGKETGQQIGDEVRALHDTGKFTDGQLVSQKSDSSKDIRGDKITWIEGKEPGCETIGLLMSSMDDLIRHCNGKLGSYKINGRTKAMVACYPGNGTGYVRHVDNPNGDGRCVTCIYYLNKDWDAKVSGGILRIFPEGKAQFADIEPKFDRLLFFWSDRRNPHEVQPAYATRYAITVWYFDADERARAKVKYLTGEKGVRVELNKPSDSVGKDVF

`O=C(O)CNC(=O)c1c(O)c2c(n(Cc3ccc(C(F)(F)F)cc3)c1=O)CS(=O)(=O)C2` [Example 63, N-({4-hydroxy-6,6-dioxido-2-oxo-1-[4-(trifluoromethyl)benzyl]-1,2,5,7-tetrahydrothieno[3,4-6]pyridin-3-yl}carbonyl)glycine] and `O=C(O)CNC(=O)c1c(O)c2c(n(Cc3ccc(OC(F)(F)F)cc3)c1=O)CS(=O)(=O)C2` [Example 65, N-({4-hydroxy-6,6-dioxido-2-oxo-1-[4-(trifluoromethoxy)benzyl]-1,2,5,7-tetrahydrothieno[3,4-b]pyridin-3-yl}carbonyl)glycine] cannot be ordered by IC50: ≤ 0.01 µM for the first, ≤ 0.01 µM for the second.

`O=C(O)CNC(=O)c1c(O)c2c(n(Cc3ccc(-c4cccc(Cl)c4)nc3)c1=O)CSC2` [Example 39, N-[(l-{[6-(3-chlorophenyl)pyridinium-3-yl]methyl}-4-hydroxy-2-oxo-1,2,5,7-tetrahydrothieno[3,4-b]pyridin-3-yl)carbonyl]glycine trifluoroacetate] and `O=C(O)CNC(=O)c1c(O)c2c(n(Cc3ccc(-c4ccn[nH]4)cc3)c1=O)CSC2` [Example 27, N-({4-hydroxy-2-oxo-1-[4-(1H-pyrazol-5-yl)benzyl]-1,2,5,7-tetrahydrothieno[3,4-b]pyridin-3-yl}carbonyl)glycine] cannot be ordered by IC50: ≤ 0.01 µM for the first, ≤ 0.01 µM for the second.

`CC(C)c1ccc(Cn2c3c(c(O)c(C(=O)NCC(=O)O)c2=O)CS(=O)(=O)C3)cc1` [Example 61, N-{[4-hydroxy-1-(4-isopropylbenzyl)-6,6-dioxido-2-oxo-1,2,5,7-tetrahydrothieno[3,4-b]pyridin-3-yl]carbonyl}glycine] and `CS(=O)(=O)c1ccc(Cn2c3c(c(O)c(C(=O)NCC(=O)O)c2=O)CSC3)cc1` [Example 6, N-({4-hydroxy-1-[4-(methylsulfonyl)benzyl]-2-oxo-1,2,5,7-tetrahydrothieno[3,4-d]pyridin-3-yl]carbonyl)glycine] cannot be ordered by IC50: ≤ 0.01 µM for the first, ≤ 0.01 µM for the second.

`O=C(O)CNC(=O)c1c(O)c2c(n(Cc3ccc(Cl)c(C(F)(F)F)c3)c1=O)CSC2` [Example 18, N-({1-[4-chloro-3-(trifluoromethyl)benzyl]-4-hydroxy-2-oxo-1,2,5,7-tetrahydrothieno[3,4-b]pyridin-3-yl}carbonyl)glycine] and `O=C(O)CNC(=O)c1c(O)c2c(n(Cc3ccc(OC(F)(F)F)cc3)c1=O)CSC2` [Example 20, N-({4-hydroxy-2-oxo-1-[4-(trifluoromethoxy)benzyl]-1,2,5,7-tetrahydrothieno[3,4-b]pyridin-3-yl}carbonyl)glycine] cannot be ordered by IC50: ≤ 0.01 µM for the first, ≤ 0.01 µM for the second.

`CCN(CC)C(=O)c1ccccc1-c1ccc(Cn2c3c(c(O)c(C(=O)NCC(=O)O)c2=O)CSC3)cc1` [Example 37, N-{[1-({2′-[(diethylamino)carbonyl]biphenyl-4-yl}methyl)-4-hydroxy-2-oxo-1,2,5,7-tetrahydrothieno[3,4-b]pyridin-3-yl]carbonyl}glycine] and `O=C(O)CNC(=O)c1c(O)c2c(n(Cc3ccc(-c4ccccc4)cc3)c1=O)CSC2` [Example 29, N-{[1-(biphenyl-4-ylmethyl)-4-hydroxy-2-oxo-1,2,5,7-tetrahydrothieno[3,4-b]pyridin-3-yl]carbonyl}glycine] cannot be ordered by IC50: ≤ 0.01 µM for the first, ≤ 0.01 µM for the second.

`O=C(O)CNC(=O)c1c(O)c2c(n(-c3ccc(-c4ccc(OC(F)(F)F)cc4)cc3)c1=O)CSC2` [Example 38, N-({4-hydroxy-2-oxo-1-[4′-(trifluoromethoxy)biphenyl-4-yl]-1,2,5,7-tetrahydrothieno[3,4-b]pyridin-3-yl}carbonyl)glycine] and `O=C(O)CNC(=O)c1c(O)c2c(n(Cc3ccc(-c4ccc(OC(F)(F)F)cc4)cc3)c1=O)CSC2` [Example 36, N-[(4-hydroxy-2-oxo-1-{[4′-(trifluoromethoxy)biphenyl-4-yl]methyl}-1,2,5,7-tetrahydrothieno[3,4-b]pyridin-3-yl)carbonyl]glycine] cannot be ordered by IC50: 0.01 to 0.1 µM for the first, ≤ 0.01 µM for the second.

`O=C(O)CNC(=O)c1c(O)c2c(n(Cc3ccc(Oc4ccc(F)cc4)cc3)c1=O)CSC2` [Example 32, N-({l-[4-(4-fluorophenoxy)benzyl]-4-hydroxy-2-oxo-1,2,5,7-tetrahydrothieno[3,4-b]pyridin-3-yl}carbonyl)glycine] and `O=C(O)CNC(=O)c1c(O)c2c(n(Cc3ccc(Oc4ccc(Cl)cc4)cc3)c1=O)CSC2` [Example 33, N-({1-[4-(4-chlorophenoxy)benzyl]-4-hydroxy-2-oxo-1,2,5,7-tetrahydrothieno[3,4-b]pyridin-3-yl}carbonyl)glycine] cannot be ordered by IC50: ≤ 0.01 µM for the first, ≤ 0.01 µM for the second.

`O=C(O)CNC(=O)c1c(O)c2c(n(Cc3noc(-c4ccccc4)n3)c1=O)CSC2` [Example 10, N-({4-hydroxy-2-oxo-1-[(5-phenyl-1,2,4-oxadiazol-3-yl)methyl]-1,2,5,7-tetrahydrothieno[3,4-b]pyridin-3-yl]carbonyl)glycine] and `O=C(O)CNC(=O)c1c(O)c2c(n(Cc3cnn(-c4ccccc4)c3)c1=O)CSC2` [Example 24, N-({4-hydroxy-2-oxo-1-[(1-phenyl-1H-pyrazol-4-yl)methyl]-1,2,5,7-tetrahydrothieno[3,4-b]pyridin-3-yl}carbonyl)glycine] cannot be ordered by IC50: ≤ 0.01 µM for the first, ≤ 0.01 µM for the second.

`O=C(O)CNC(=O)c1c(O)c2c(n(Cc3ccc(-n4cccn4)cc3)c1=O)CSC2` [Example 23, N-({4-hydroxy-2-oxo-1-[4-(1H-pyrazol-1-yl)benzyl]-1,2,5,7-tetrahydrothieno[3,4-b]pyridin-3-yl}carbonyl)glycine] and `CCc1ccc(Cn2c3c(c(O)c(C(=O)NCC(=O)O)c2=O)CSC3)cc1` [Example 17, N-{[1-(4-ethylbenzyl)-4-hydroxy-2-oxo-1,2,5,7-tetrahydrothieno[3,4-b]pyridin-3-yl]carbonyl}glycine] cannot be ordered by IC50: ≤ 0.01 µM for the first, ≤ 0.01 µM for the second.

`O=C(O)CNC(=O)c1c(O)c2c(n(Cc3cc(F)cc(C(F)(F)F)c3)c1=O)CSC2` [Example 13, N-({l-[3-fluoro-5-(trifluoromethyl)benzyl]-4-hydroxy-2-oxo-1,2,5,7-tetrahydrothieno[3,4-b]pyridin-3-yl]carbonyl)glycine] and `Cc1ccc(-c2ccc(Cn3c4c(c(O)c(C(=O)NCC(=O)O)c3=O)CSC4)cc2)cc1` [Example 25, N-({4-hydroxy-1-[(4′-methylbiphenyl-4-yl)methyl]-2-oxo-1,2,5,7-tetrahydrothieno[3,4-b]pyridin-3-yl}carbonyl)glycine] cannot be ordered by IC50: 0.01 to 0.1 µM for the first, ≤ 0.01 µM for the second.

`O=C(O)CNC(=O)c1c(O)c2c(n(Cc3ccc(-c4ccc(Cl)cc4)cc3)c1=O)CSC2` [Example 30, N-({1-[(4′-chlorobiphenyl-4-yl)methyl]-4-hydroxy-2-oxo-1,2,5,7-tetrahydrothieno[3,4-b]pyridin-3-yl}carbonyl)glycine] and `O=C(O)CNC(=O)c1c(O)c2c(n(-c3ccc(Br)cc3)c1=O)CSC2` [Example 12, N-{[1-(4-bromophenyl)-4-hydroxy-2-oxo-1,2,5,7-tetrahydrothieno[3,4-b]pyridin-3-yl]carbonyl]glycine] cannot be ordered by IC50: ≤ 0.01 µM for the first, ≤ 0.01 µM for the second.

— patent US8445680B2, “Tetrahydrothieno pyridines” (Merck Sharp & Dohme Corp., priority 2008, dated 2013)
